Test [1] relates to HUVECs. Nature of the test: Tube formation assay on Matrigel. It counts as cell-based, human. As to conditions: 24 h. The protocol: As described previously in M. S. Lee, et al., J Immunol 177 (2006), pp. 5585-5594, HUVECs were seeded on a layer of previously polymerized Matrigel with SFKLRY-NH2 (SEQ ID NO: 2), its scrambled sequence FYSRLK-NH2, S1P or VEGF in the presence or absence of VEGF neutralizing antibody. After 24 h of incubation, changes in cell morphology were observed through a phase-contrast microscope and photographed. To measure the formation of the capillary network, the total tube length per field was measured at 40× magnification with the scale. Three different fields were analyzed per well.
FIGS. 2A-2C show SFKLRY-NH2 (SEQ ID NO: 2) induces proliferation, migration, and tube formation in HUVECs. (A) The effect of SFKLRY-NH2 on proliferation of HUVECs. […] After 48 h of incubation, the activity of DNA synthesis was counted with a liquid scintillation counter. […] After wounding, HUVECs were incubated with indicated concentration of SFKLRY-NH2 (SEQ ID NO: 2) (0.1-10 μM) for 16 h and then migrated HUVECs beyond the reference line were counted. […] After incubation for 24 h, the tubular-like structures were photographed and the length of tube formation was measured. […]
FIGS. 6A-6B show anti-VEGF antibody suppress SFKLRY-NH2 (SEQ ID NO: 2)-induced tube formation in HUVECs. […] After incubation for 24 h, the tubular-like structures were photographed and the length of tube formation was measured. […]

For test [2], the system named is HUVECs. In words: [Ca2+]i increase in HUVECs. It is filed as cell-based, human. Particulars: 10 μM. As to the method:
Cells were incubated with 4 μM Fura-2 AM and 250 μM sulfinpyrazone in serum-free DMEM medium at 37° C. for 30 min with continuous stirring. The cells were then washed with Locke's solution (M. Faehling, et al., FASEB J 16 (2002), pp. 1805-1807) and diluted to 2×10^6 cells/mL. 50 μL aliquots of cell suspension were added to each well of a 96-well plate, and the change in fluorescence ratio was determined at dual excitation wavelengths of 340 and 380 nm and emission wavelength of 500 nm following addition of peptides. Plates were read immediately following the addition of peptide pools, resulting in a time delay of approximately 5 s between peptide addition and detection by the FLEXstation (Molecular Devices). Negative and positive controls were run simultaneously with test samples to ensure that all samples were subjected to identical conditions. The calibration of the fluorescence ratio in terms of [Ca^2+]i was performed according to Grynkiewicz et al. J Biol Chem 260 (1985), pp. 3440-3450.
To verify that SFKLRY-NH2 (SEQ ID NO: 2) induces [Ca^2+]i increase in human endothelial cells, intracellular Ca^2+ mobilization in primary cultured human umbilical vein endothelial cells (HUVECs) were measured. Treatment with SFKLRY-NH2 (SEQ ID NO: 2) induced [Ca^2+]i increase in HUVECs with the half-maximal effect at 1.4±0.15 μM. […]

In the next test the test system is Rat aortic explants. In words: Aortic ring assay (vessel sprouting ex vivo). It counts as cell-based. Particulars: 1 μM; 7 days. The protocol: The method developed by Nicosia and Ottinetti in In Vitro Cell Dev Biol 26 (1990), pp. 119-128 was used with some modifications. Aortas were harvested from 6-week-old Sprague-Dawley rats. After removing the surrounding fibro-adipose tissues, the rings were immersed in Matrigel in wells within culture dishes. The aortic rings were cultured (5% CO2, 37° C.) in serum-free M199 containing SFKLRY-NH2 (SEQ ID NO: 2), S1P, FYSRLK-NH2, or VEGF in the presence or absence of PTX or U73122. On day 7, sprouting from aortic explants was measured.
To address whether SFKLRY-NH2 (SEQ ID NO: 2) plays a role in sprouting of vascular endothelial cells ex vivo, aortic rings were analyzed in the presence of various stimuli including 1 μM SFKLRY-NH2 (SEQ ID NO: 2), 10 ng/mL VEGF, 10 nM S1P, and 10% FBS. […] Rat aortic explants in Matrigel were incubated with M-199 harboring SFKLRY-NH2 (SEQ ID NO: 2) (1 μM), FYSRLK-NH2 (1 μM), S1P (10 nM), VEGF (10 ng/mL), SFKLRY-NH2 (SEQ ID NO: 2) (1 μM) with U73122 (10 μM) or PTX (50 ng/mL), or 10% FBS and photographed after incubation for 7 days. Three independent experiments were then conducted, each in duplicate.

On to `CCCCCCCCCCCCC/C=C/[C@@H](O)[C@@H](N)COP(=O)(O)O` [S1P, sphingosine-1-phosphate], for which, in the test with HUVECs [1] (100 nM), the “Tube-forming activity (length of tube formation)” value was determined as 19.69±0.32.
Consider FYSRLK-NH2, for which the “Ca2+ mobilization” value in the test on HUVECs [2] was “did not trigger Ca^2+ mobilization”. In addition, the “Tube-forming activity (length of tube formation)” value with HUVECs [1] (10 μM) was found to be 8.96±1.14. The “vessel sprouting activity (outgrowth of endothelial cells)” value in the test with Rat aortic explants is “negligible activity”.
